Read-outs that look alike come from different tables or passages of the source. Values belong to the compound of their own block, whether it stands above or below them.
Assays:
Assay type in all cases: cell-based
TRPA1 [1] = target: T1, TRPA1 (Mus musculus, UniProt Q8BLA8); test: Fluo-4 calcium imaging in transfected HEK293A cells, agonist at […]
TRPA1 [2] = target: T1, TRPA1; conditions: HEK293-A, read-out: % reduction at 50 μM
TRPV1 [3] = target: T2, TRPV1 (Mus musculus, UniProt Q704Y3); test: Fluo-4 calcium imaging in transfected HEK293A cells, agonist at […]
TRPA1 [4] = target: T1, TRPA1; conditions: HEK293-A, read-out: % reduction at 50 μM; remark: listed apart in the source
TRPV1 [5] = target: T2, TRPV1
TRPV1 [6] = target: T2, TRPV1; test: Fluo-4 calcium imaging in TRPV1-transfected HEK293A cells, […]
TRPV4 = TRPV4 (Rattus norvegicus, UniProt Q9ERZ8); test: Fluo-4 calcium imaging in transfected HEK293A cells, agonist at […]
TRPV1 [7] = target: T2, TRPV1; conditions: HEK293-A, read-out: % reduction at 50 μM

T2 sequence (Q704Y3 whole entry): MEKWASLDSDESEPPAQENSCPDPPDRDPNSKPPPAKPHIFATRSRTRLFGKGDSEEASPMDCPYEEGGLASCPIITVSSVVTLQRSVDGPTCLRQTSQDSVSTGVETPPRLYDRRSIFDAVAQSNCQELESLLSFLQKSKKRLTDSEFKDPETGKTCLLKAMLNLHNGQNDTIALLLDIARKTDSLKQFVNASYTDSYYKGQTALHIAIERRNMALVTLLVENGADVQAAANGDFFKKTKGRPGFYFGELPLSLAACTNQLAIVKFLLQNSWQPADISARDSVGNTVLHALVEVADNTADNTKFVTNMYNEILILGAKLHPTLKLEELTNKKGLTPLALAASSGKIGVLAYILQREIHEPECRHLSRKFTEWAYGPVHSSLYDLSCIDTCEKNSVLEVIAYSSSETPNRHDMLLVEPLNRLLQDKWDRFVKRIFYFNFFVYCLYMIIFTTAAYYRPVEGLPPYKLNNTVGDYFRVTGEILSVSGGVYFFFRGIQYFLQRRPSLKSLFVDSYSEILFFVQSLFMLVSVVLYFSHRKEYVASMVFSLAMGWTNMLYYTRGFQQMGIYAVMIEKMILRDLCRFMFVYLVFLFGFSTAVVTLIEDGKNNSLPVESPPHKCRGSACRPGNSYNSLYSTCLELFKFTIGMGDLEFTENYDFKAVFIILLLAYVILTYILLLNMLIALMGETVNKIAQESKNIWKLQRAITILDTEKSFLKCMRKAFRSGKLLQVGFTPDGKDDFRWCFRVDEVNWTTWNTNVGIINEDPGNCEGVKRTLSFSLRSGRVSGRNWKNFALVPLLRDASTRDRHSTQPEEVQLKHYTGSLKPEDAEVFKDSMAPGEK
T1 sequence (Q8BLA8 whole entry): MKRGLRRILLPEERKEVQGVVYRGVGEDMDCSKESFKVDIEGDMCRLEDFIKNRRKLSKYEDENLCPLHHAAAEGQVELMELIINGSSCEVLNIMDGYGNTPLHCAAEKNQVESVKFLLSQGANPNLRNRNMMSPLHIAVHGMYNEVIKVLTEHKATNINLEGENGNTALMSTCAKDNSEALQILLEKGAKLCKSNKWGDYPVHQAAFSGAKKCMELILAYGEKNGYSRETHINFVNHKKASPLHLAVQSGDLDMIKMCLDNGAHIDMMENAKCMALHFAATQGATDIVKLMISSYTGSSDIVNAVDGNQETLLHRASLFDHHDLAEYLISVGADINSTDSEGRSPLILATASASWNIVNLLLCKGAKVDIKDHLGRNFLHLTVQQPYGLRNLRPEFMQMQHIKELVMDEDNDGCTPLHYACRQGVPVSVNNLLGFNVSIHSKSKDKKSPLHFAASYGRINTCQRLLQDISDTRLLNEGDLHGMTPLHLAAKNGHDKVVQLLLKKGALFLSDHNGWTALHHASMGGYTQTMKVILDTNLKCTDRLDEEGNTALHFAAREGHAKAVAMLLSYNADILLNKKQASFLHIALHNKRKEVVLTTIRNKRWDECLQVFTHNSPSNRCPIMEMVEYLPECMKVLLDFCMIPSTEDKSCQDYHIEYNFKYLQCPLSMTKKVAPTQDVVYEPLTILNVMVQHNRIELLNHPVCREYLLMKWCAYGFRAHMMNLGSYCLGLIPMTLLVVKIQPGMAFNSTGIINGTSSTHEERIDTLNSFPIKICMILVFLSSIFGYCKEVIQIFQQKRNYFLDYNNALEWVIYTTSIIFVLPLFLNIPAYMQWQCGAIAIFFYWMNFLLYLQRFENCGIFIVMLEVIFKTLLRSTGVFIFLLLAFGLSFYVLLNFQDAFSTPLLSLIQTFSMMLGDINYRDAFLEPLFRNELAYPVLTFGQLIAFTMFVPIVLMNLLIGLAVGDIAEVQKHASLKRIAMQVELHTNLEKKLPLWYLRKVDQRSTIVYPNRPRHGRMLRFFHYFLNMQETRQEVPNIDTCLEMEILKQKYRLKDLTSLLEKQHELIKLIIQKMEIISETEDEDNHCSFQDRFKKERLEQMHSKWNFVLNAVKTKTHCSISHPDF
Chain of TRPV4 (Q9ERZ8 whole entry): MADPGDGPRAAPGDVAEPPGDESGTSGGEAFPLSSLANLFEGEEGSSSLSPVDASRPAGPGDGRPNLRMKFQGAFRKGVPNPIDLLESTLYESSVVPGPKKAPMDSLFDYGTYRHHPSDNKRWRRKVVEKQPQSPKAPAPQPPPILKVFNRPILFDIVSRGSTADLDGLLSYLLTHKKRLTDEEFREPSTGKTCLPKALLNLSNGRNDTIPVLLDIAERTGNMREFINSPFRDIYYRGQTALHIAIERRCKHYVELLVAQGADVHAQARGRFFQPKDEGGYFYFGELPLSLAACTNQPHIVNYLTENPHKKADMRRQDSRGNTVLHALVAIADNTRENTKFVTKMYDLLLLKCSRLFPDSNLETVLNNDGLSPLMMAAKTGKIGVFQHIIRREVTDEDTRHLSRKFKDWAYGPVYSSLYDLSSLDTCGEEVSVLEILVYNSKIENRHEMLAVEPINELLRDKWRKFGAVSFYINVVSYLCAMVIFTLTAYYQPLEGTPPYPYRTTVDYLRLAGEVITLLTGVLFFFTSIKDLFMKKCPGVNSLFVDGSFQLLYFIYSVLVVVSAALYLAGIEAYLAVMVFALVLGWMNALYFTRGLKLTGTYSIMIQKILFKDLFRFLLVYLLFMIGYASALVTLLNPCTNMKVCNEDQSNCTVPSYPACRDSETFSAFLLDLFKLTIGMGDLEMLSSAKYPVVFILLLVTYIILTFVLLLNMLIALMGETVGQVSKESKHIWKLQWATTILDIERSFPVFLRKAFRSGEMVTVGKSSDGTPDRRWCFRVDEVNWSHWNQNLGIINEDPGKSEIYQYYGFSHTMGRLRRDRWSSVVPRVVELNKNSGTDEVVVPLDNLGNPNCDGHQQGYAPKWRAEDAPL

Structure (SMILES): C=CCN=C=S [allyl isothiocyanate]
Fluo-4 calcium imaging in transfected HEK293A cells, agonist at 10 μM (TRPA1 [1]): only channel-transfected, RFP^+ cells, but not untransfected, RFP^− cells, exhibited a calcium flux in response to the corresponding agonist

Structure (SMILES): CCCCC/C=C\C/C=C\C/C=C\C/C=C\CCCC(=O)N[C@@H](Cc1ccccc1)C(=O)O [C20:4-Phe]
inhibition at 50 µM (TRPA1 [2]): 87 ± 5%

Structure (SMILES): CCCCC/C=C\C/C=C\C/C=C\C/C=C\CCCC(=O)N[C@@H](CO)C(=O)O [C20:4-Ser]
inhibition at 50 µM (TRPA1 [2]): 68 ± 8%

Structure (SMILES): COc1cc(CNC(=O)CCCC/C=C/C(C)C)ccc1O [capsaicin]
Fluo-4 calcium imaging in transfected HEK293A cells, agonist at 10 μM (TRPV1 [3]): capsaicin treatment induced a robust increase in the intracellular calcium concentration in the TRPV1-transfected, RFP^+ cells

inhibition at 50 µM (TRPA1 [4]): 94 ± 5%
IC50 (TRPV1 [5]): 1300 nM
Structure (SMILES): CCCCCCCC/C=C\CCCCCCCC(=O)N[C@@H](CCC(N)=O)C(=O)O [C18:1-Gln, N-oleoyl-glutamine]

Structure (SMILES): CCCCCCCC/C=C\CCCCCCCC(=O)N[C@H](CCC(N)=O)C(=O)O [C18:1-D-Gln]
Fluo-4 calcium imaging in TRPV1-transfected HEK293A cells, 50 μM (TRPV1 [6]): the unnatural enantiomer C18:1-D-Gln fully antagonized capsaicin-induced TRPV1 calcium flux

Structure (SMILES): CC(C)C[C@H](NC(=O)c1cc2ccccc2s1)C(=O)N1CCN(C(=O)[C@H](CO)NS(=O)(=O)c2ccc(Cl)cc2Cl)CC1 [GSK1016790A]
Fluo-4 calcium imaging in transfected HEK293A cells, agonist at 0.2 μM (TRPV4): only channel-transfected, RFP^+ cells, but not untransfected, RFP^− cells, exhibited a calcium flux in response to the corresponding agonist

inhibition at 50 µM (TRPV1 [7]): 49 ± 7%
Structure (SMILES): CCCCCCCC/C=C\CCCCCCCC(=O)N[C@@H](CC(N)=O)C(=O)O [C18:1-Asn]

— publication PMC6055169 (Proceedings of the National Academy of Sciences of the …, 2018)
